Earlier results, collected in patent publication US20100189788A1 (Teva Pharmaceutical Industries, Ltd., priority 2009, published 2010).

Details: such as hexane toluene and ethylacetate; in words

solubility in non-polar organic solvents: very soluble
SMILES: C#CCN[C@@H]1CCc2ccccc21 [rasagiline, R(+)-N-propargyl-1-aminoindan]
